Legend:
CYP2C9 = biological target: T1, CYP2C9 (Homo sapiens, UniProt P11712); test: in vitro; type: biochemical; conditions: human, pH 7.5
T1 construct: purchased Merck
Experimental: Inhibitory actions of ZEN conjugates on CYP2C9 and CYP3A4 enzymes were examined employing CypExpress Cytochrome P450 human kits. , Briefly, incubates (200 μL) contained the substrate (5 μM; diclofenac for CYP2C9 and testosterone for CYP3A4), the CypExpress reagent (6 mg/mL of CYP2C9 kit or 15 mg/mL of CYP3A4 kit; also including the glucose-6-phosphate dehydrogenase enzyme), and the test compounds (each 20 μM) in 0.05 M potassium phosphate buffer (pH 7.5). CYP3A4 assay was supplemented with additional G6P and NADP^+ (both 400 μM). Enzyme assays were started with the addition of the enzyme. After 120 min (CYP2C9) or 180 min (CYP3A4) incubation at 700 rpm and 30 °C in a thermomixer, the reaction was stopped with 100 μL of ice-cold methanol. Then, the samples were centrifuged for 10 min at 14,000g and room temperature. The supernatants were gently removed and directly analyzed by HPLC (see Section ).
Diclofenac and 4′-hydroxydiclofenac (CYP2C9 assay) were quantified using the previously reported HPLC-UV assay, , without modification. Briefly, the isocratic elution, with 1.0 mL/min flow rate, was performed with orthophosphoric acid (6 mM) and acetonitrile (48:52 v/v %) mobile phase, applying a Security Guard (C8, 4.0 × 3.0 mm; Phenomenex, Torrance, CA) precolumn and a Mediterranea Sea8 (C8, 150 × 4.6 mm, 5 μm; Teknokroma, Barcelona, Spain) analytical column at room temperature (injected volume: 20 μL). Diclofenac and 4′-hydroxydiclofenac were detected at 275 nm.

MDR1 = biological target: T2, MDR1 (Homo sapiens, UniProt P08183); test: MDR1-mediated NMQ vesicular transport (Sf9 membrane vesicles); type: biochemical; conditions: human; 30 μM; NMQ 5 μM; read-out: inhibition of MDR1-mediated, ATP-dependent uptake of NMQ
T2 construct: made in house; host or cells: Sf9 insect cells (baculovirus)
Experimental: Experiments were performed in insect membrane vesicles, as described previously. Briefly, human MDR1, BCRP, and MRP2 were expressed in Sf9 insect cells by baculoviruses. On the third day of infection, cells were collected and membrane vesicles were obtained by mechanical disruption and differential centrifugation. To get full activity for BCRP, the cholesterol levels of the vesicles were adjusted to the level of mammalian membranes. Vesicles were stored at −80 °C, and the total protein content of the preparations was measured by the Lowry method (used as a reference for the quantity). […] A 100 μL volume of fluorescence stabilizer was added to the samples (DMSO for LY, 0.1 M H2SO4 for NMQ, and 0.1 M NaOH for CDCF). Fluorescence of samples was measured by plate readers (Victor X3 and Enspire PerkinElmer; Waltham, MA) at appropriate wavelengths (filters in the Victor X3 reader were 405/535 nm for LY and 492/635 nm for CDCF; while in the Enspire reader, NMQ was measured at 360/430 nm excitation/emission wavelengths). ABC-related transport was calculated by subtracting passive uptake measured without Mg-ATP from values measured in the presence of Mg-ATP.

T2 sequence (P08183 whole entry): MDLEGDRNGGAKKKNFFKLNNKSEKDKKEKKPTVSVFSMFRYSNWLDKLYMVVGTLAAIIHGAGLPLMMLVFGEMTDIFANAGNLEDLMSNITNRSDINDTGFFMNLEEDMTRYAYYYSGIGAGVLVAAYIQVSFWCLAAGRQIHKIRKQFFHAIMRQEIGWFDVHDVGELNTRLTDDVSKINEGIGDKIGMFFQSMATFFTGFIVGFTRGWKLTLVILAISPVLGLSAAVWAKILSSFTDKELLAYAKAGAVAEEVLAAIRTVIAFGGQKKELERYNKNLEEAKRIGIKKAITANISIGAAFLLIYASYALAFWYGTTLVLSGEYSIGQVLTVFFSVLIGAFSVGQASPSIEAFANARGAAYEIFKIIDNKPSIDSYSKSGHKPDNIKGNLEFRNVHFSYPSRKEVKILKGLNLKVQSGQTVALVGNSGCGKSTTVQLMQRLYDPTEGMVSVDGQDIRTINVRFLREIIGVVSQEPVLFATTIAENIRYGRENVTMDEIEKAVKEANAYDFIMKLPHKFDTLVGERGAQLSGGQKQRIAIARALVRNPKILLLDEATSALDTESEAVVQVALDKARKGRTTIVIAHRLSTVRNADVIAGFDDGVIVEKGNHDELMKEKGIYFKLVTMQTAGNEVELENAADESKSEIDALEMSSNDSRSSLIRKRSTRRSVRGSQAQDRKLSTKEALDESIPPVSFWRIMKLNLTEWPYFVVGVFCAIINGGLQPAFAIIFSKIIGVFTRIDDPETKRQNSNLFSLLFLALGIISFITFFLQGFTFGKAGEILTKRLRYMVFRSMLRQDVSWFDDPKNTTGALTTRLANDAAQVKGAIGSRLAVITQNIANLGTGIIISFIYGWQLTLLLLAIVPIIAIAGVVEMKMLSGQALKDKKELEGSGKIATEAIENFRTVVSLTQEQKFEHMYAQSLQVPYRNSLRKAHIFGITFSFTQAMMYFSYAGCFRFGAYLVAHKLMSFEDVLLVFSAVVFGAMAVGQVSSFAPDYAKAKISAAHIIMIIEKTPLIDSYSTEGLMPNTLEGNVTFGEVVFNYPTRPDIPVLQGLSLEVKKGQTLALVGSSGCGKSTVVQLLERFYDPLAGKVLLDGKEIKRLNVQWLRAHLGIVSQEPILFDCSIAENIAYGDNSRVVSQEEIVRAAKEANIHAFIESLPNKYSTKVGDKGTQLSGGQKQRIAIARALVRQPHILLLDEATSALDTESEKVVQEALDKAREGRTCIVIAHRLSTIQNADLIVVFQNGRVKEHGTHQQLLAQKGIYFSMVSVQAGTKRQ
T1 sequence (P11712 whole entry): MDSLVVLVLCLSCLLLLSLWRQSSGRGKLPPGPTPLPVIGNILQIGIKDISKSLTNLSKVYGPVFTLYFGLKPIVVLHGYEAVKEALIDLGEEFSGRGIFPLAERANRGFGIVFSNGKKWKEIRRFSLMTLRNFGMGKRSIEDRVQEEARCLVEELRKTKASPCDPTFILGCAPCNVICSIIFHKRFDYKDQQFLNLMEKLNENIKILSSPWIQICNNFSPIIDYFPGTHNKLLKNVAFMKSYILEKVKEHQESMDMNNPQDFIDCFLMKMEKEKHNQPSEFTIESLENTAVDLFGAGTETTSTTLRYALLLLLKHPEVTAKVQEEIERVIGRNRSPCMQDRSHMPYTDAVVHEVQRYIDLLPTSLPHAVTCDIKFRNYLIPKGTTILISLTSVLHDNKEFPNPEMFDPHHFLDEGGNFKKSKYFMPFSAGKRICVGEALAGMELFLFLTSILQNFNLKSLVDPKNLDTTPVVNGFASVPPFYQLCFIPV

Row | SMILES | inhibition of CYP2C9 (decrease in metabolite formation) (CYP2C9) | inhibition at 10 min, 30 μM (MDR1) [%]
1 | Nc1ccc(S(=O)(=O)Nc2ccnn2-c2ccccc2)cc1 [sulfaphenazole, reference compound] | more than 90% | 
2 | COc1ccc(CCN(C)CCCC(C#N)(c2ccc(OC)c(OC)c2)C(C)C)cc1OC (centres unmarked) [verapamil, reference compound] |  | 97

Reference: PMC12311865, “In Vitro Evaluation of the Potential Interactions of Zearalenone-14-sulfate and Zearalenone-14-glucuronide with Human Cytochrome P450 Enzymes, Organic Anion Transporting Polypeptides, and ATP-Binding Cassette Multidrug Transporters” (ACS Omega, 2025)
